Tests used:
[1] = system: STING pathway cytokine hIFN-β in human THP-1 cells; assay: ELISA of STING pathway cytokine hIFN-β expression in human THP-1 cells; type: cell-based; settings: 8 hours, ELISA; for EC50: hIFN-β expression; for Emax: highest expression of hIFN-β
Source text: In this experiment, the expression of STING signal pathway cytokine hIFN-β was detected in THP1 cells (Nanjing Cobioer) by the ELISA method, so as to evaluate the agonistic effect of the compounds to be tested on the expression of STING pathway cytokine hIFN-β at the cellular level.
THP1 cells (Nanjing Cobioer) in the logarithmic phase were centrifuged, and resuspended in a cell culture solution to a density of 8×10^6 cells/ml. The cell suspension was inoculated into a 24-well cell culture plate (Corning) at 250 μL/well.
The mother liquor of the compound to be tested was diluted with a cell culture solution to obtain a 2× working concentration diluted solution (control compounds 1 and 2 were diluted at a 2-fold gradient: 200, 100, 50, 25, 12.5, 6.25, 3.125, 1.5625 and 0 μM; and compounds 4, 6, and 8 were diluted at a 3-fold gradient: 200, 66.67, 22.22, 7.41, 2.47, 0.82, 0.27, 0.091 and 0 μM). The 2× working concentration diluted solution of the compound was added into 24-well plate (250 μl of the culture solution containing 2% DMSO was added into the negative control well) at 250 μL/well. The culture plate was placed in a cell culture incubator, and incubated for 8 hours. After the cell incubation, the supernatant was collected by centrifugation at 300 g×5 min, and the hIFN-β content (pg/ml) in the cell culture supernatant was detected according to the operating instructions of the VeriKine Human […] ELISA kit from PBL (obtained by conversion of the […] absorbance-hIFN-β standard concentration standard curve and the OD450 nm absorbance value read by the microplate reader). […] was calculated through log(agonist) vs. response—Variable slope fitting by the Graphpad Prism software, and the experimental results are shown in Table 2.
In the table, EC50 refers to the concentration of a compound when the expression of hIFN-β generated by stimulation of the compound reaches half of Emax and Emax refers to the highest expression of hIFN-β generated by stimulation of the compound.

[2] = system: STING pathway cytokine mIFN-β in mouse Raw264.7 cells; assay: ELISA of STING pathway cytokine mIFN-β expression in mouse Raw264.7 cells; type: cell-based; settings: 6 h, ELISA; for Emax: highest expression of mIFN-β; for EC50: mIFN-β expression
Source text: In this experiment, the expression of STING signal pathway cytokine mIFN-β was detected in Raw264.7 cells (Nanjing Cobioer) by the ELISA method, so as to evaluate the agonistic effect of the compound to be tested on the expression of STING pathway cytokine mIFN-β at the cellular level.
Raw264.7 cells (Nanjing Cobioer) in the logarithmic phase were centrifuged, and resuspended in a cell culture solution to a density of 1.6×10^6 cells/ml. The cell suspension was inoculated into a 24-well cell culture plate (Corning) at 250 μL/well. The mother liquor of the compound to be tested was gradiently diluted with a cell culture solution to obtain a 2× working concentration diluted solution (control compound 1 was diluted at a 3-fold gradient: 200, 66.67, 22.22, 7.41, 2.47, 0.82, 0.27 and 0 μM; control compound 2 was diluted at a 2-fold gradient: 200, 100, 50, 25, 12.5, 6.25, 3.125 and 0 μM; and compounds 4, 6 and 8 were diluted at a 4-fold gradient: 200, 50, 12.5, 3.13, 0.78, 0.20, 0.049 and 0 μM). The 2× working concentration diluted solution of the compound was added into a 24-well plate (250 μl of the culture solution containing 2% DMSO was added into the negative control well) at 250 μL/well. The culture plate was then placed in a cell incubator, and incubated for 6 h. After the cell incubation, the supernatant was collected by centrifugation at 300 g×5 min, and the mIFN-β content (pg/ml) in the cell culture supernatant was detected according to the operating instructions of the VeriKinem Mouse IFN Beta ELISA Kit from PBL (obtained by conversion of the OD450 nm absorbance-mIFN-β standard concentration standard curve and the OD450 nm absorbance value read by the microplate reader). EC50 was calculated through log(agonist) vs. response—Variable slope fitting by the Graphpad Prism software, and the experimental results are shown in Table 3.
In the table, EC50 refers to the concentration of a compound when the expression of mIFN-β generated by stimulation of the compound reaches half of Emax; and Emax refers to the highest expression of mIFN-β generated by stimulation of the compound.

[3] = system: STING-mediated interferon (IFN) signal reporter gene in THP1-Blue™ ISG cells; assay: STING-mediated interferon (IFN) signal SEAP reporter gene assay in THP1-Blue ISG cells; type: cell-based, human; settings: for EC50: 16 h incubation, SEAP reporter read at OD620nm; for Emax (OD620nm): highest OD620nm value generated by stimulation of the compound, 16 h; for agonistic effect on the STING-mediated Interferon (IFN) signal pathway: result in words
Source text: In this experiment, the activity of the SEAP (secreted embryonic alkaline phosphatase) reporter gene regulated by the IFN regulatory factor (interferon regulatory factor) was detected in the THP1-Blue™ ISG cells (InvivoGen) to evaluate the agonistic effect of the compounds to be tested on the STING-mediated IFN signal pathway at the cellular level.
The THP1-Blue™ ISG cells (InvivoGen) in the logarithmic phase were centrifuged, and resuspended in a cell culture solution to a density of 2×10^6 cells/ml. The cell suspension was inoculated in a 96-well cell culture plate (Corning) at 50 μL/well. The mother liquor of the compound to be tested was gradiently diluted with a cell culture solution to obtain a 2× working concentration diluted solution (control compounds 1 and 2 were diluted at a 3-fold gradient: 200, 66.67, 22.22, 7.41, 2.47, 0.82, 0.27 and 0 μM; compounds 1, 2, 4, 6, 8, and 23 were diluted at a 8-fold gradient: 60, 7.5, 0.94, 0.12, 0.015, 0.0018, 0.00023 and 0 μM; and compounds 3 and 5 were diluted at a 10-fold gradient: 10, 1, 0.1, 0.01, 0.001, 0.0001, 0.00001 and 0 μM). The 2× working concentration diluted solution of the compound was added into a 96-well plate (50 μl of the culture solution containing 2% DMSO was added into the negative control well) at 50 μL/well. The culture plate was then placed in a cell incubator, and incubated for 16 h. After the cell incubation, 10 μL of the cell culture supernatant was transferred to a 96-well plate, and a QUANTI-Blue (InvivoGen) solution was added at 90 μL/well. The cells were incubated at 37° C. for 3 h. The absorbance at 620 nm (OD620nm) was read with a microplate reader.
In the table, EC50 refers to the concentration of a compound when ODM620nm value generated by stimulation of the compound reaches half of Emax; and Emax refers to the highest OD620nm value generated by stimulation of the compound.

[4] = system: STING and its downstream proteins TBK1 and IRF3 in THP-1 cells; assay: Western blotting of phosphorylation of STING signal pathway proteins in human THP-1 cells; type: cell-based; settings: 3 hours, protein blotting, FIGS. 1-5, result in words
Source text: In this experiment, the changes in the phosphorylation levels of STING and its downstream proteins TBK1 (TANK-binding kinase 1) and IRF3 (interferon regulatory factor 3) were detected by protein blotting to evaluate the agonistic effect of the test compounds on the STING signal pathway at the cellular level.
The THP-1 cells in the logarithmic phase were centrifuged, and resuspended in a cell culture solution to a density of […]. The cell suspension was inoculated into a 12-well cell culture plate (Corning) at 0.5 mL/well. The compound to be tested was diluted with a cell culture solution to 2× working solution concentration (control compounds 1 and 2: 60 μM; compounds 1 and 3: 0.6 μM, 6 μM, and 60 μM; compounds 2, 4, 6 and 8: 6 μM, 20 μM, and 60 μM). 0.5 mL of the diluted solution of the compound was added into a 12-well plate (500 μl of the culture solution containing 2% DMSO was added into the negative control well), and the plate was incubated in a cell incubator for 3 hours. After the incubation, the cells were collected by centrifugation, lysed with 60 μL cell lysis buffer (CST) for 30 minutes, and centrifuged at 12,000 rpm for 15 minutes. The supernatant was collected to determine the protein concentration, and then an appropriate amount of 5× protein loading buffer was added. The mixture was heated at 95° C. for 10 minutes to prepare a protein electrophoresis sample. Finally protein blotting was performed to detect the phosphorylation level of the corresponding protein. The primary antibodies used in the protein blotting were purchased from CST: STING (D2P2F) rabbit mAb, Phospho-STING (Ser366) rabbit mAb, Phospho-IRF3 (Ser396) (D601M) rabbit mAb, IRF3 (D83B9) rabbit mAb, TBK1/NAK (D1B4) rabbit mAb, Phospho-TBK1/NAK (Ser172) (D52C2) XP® rabbit mAb, and GAPDH (D16H11) rabbit mAb; and the secondary antibody horseradish peroxidase-conjugated goat anti-rabbit IgG (H+L) was purchased from Zsgb-bio.

hSTING protein = target: T1, hSTING protein (Homo sapiens, UniProt Q86WV6); assay: Human STING binding kit (HTRF) competitive binding assay
T1 construct: purchased Cisbio
Source text: In this experiment, the capability of the compound and the specific ligand (d2-STING-ligand) in a Human STING binding kit from Cisbio for competitively binding to the 6×His-hSTING protein was detected using the Human STING binding kit (HTRF method), so as to evaluate the binding affinity between the compound to be tested and the hSTING protein.
The compound was gradiently diluted with a dilution buffer in the Human STING binding kit (the diluent buffer reagent) to obtain a 4× working concentration diluted solution. […] The 6×His-hSTING protein (50× in the mother liquor) was diluted to 1× with the detection buffer in the Human STING binding kit (the detection buffer reagent). 5 μl of the diluted solution was added into the corresponding wells of a 384-well plate, and the well with no protein and no compound was set as a negative control well (min), while the well with the protein and no compound was set as a positive control well (max). The d2-STING-ligand and Tb^3+-anti-6×His-antibody (both 50× in the mother liquor) were diluted to 1× with the detection buffer in the Human STING binding kit (the detection buffer reagent), and mixed uniformly at a ratio of 1:1. 10 μl of the mixed solution was added to the corresponding wells of a 384-well plate. The plate was sealed and incubated at room temperature (25° C.) for 3 h. A BMG microplate reader was used to read HTRF, and the ratio was calculated according to the following formula: Ratio=signal665nm/signal620nm×10000. […] IC50 was calculated through log(inhibitor) vs. response—Variable slope fitting by the Graphpad Prism software.

T1 sequence (Q86WV6 whole entry H232R): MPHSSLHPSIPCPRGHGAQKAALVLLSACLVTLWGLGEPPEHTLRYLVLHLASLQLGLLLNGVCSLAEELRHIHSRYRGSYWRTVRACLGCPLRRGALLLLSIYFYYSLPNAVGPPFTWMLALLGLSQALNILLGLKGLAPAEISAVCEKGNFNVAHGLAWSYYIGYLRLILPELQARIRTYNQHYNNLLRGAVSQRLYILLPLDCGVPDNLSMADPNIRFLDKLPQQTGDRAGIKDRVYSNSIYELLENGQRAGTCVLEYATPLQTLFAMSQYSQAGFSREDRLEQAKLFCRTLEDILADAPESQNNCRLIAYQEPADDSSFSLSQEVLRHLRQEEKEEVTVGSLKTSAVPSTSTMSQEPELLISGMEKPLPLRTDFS

| SMILES | EC50 [1] | Emax [1] | Emax [2] | EC50 [2] | EC50 [3] | Emax (OD620nm) [3] | EC50 ([3]; Homo sapiens) | agonistic effect on the STING-mediated Interferon (IFN) signal pathway [3] | agonistic effect on the phosphorylation levels of STING, TBK1 and IRF3 [4] | Ki (hSTING protein; calculated as Ki=1/2*IC50 per kit instructions) | IC50 (hSTING protein; competition with d2-STING-ligand for 6×His-hSTING, HTRF, 3 h at 25° C.) |
| --- | --- | --- | --- | --- | --- | --- | --- | --- | --- | --- | --- |
| Nc1ncnc2c1ncn2[C@@H]1O[C@@H]2COP(=O)([S-])O[C@@H]3[C@H](O)[C@@H](COP([O-])(=S)O[C@H]2[C@H]1O)O[C@H]3n1cnc2c(N)ncnc21.[Na+].[Na+] (stereo partly drawn) [Control Compound 1, ADU-S100, reference compound] | 14 µM | 1476.6 pg/mL | 1248.94 pg/mL | 2.74 µM | 3.88 µM | 2.03 OD620nm | – | – | – | – | – |
| CCOC(=O)CCC(=O)c1cc2cc(OCCCOc3cc4sc(C(=O)N(C)CCC(=O)OCC)cc4cc3OC)c(OC)cc2s1 [Compound 5, ethyl 4-(5-(3-((2-((3-ethoxy-3-oxopropyl)(methyl)carbamoyl)-5-methoxybenzo[b]thiophen-6-yl)oxy)propoxy)-6-methoxybenzo[b]thiophen-2-yl)-4-oxobutyrate] | – | – | – | – | – | 1.94 OD620nm | 0.0014 µM | strong agonistic effects | – | – | – |
| CCOC(=O)CCC(=O)c1cc2cc(OCCCOc3cc4cc(C(=O)N(C)CCCOC)sc4cc3OC)c(OC)cc2s1 [Compound 23, ethyl 4-(6-methoxy-5-(3-((6-methoxy-2-((3-methoxypropyl)(methyl)carbamoyl)benzo[b]thiophen-5-yl)oxy)propoxy)benzo[b]thiophen-2-yl)-4-oxobutyrate] | – | – | – | – | – | 1.74 OD620nm | 0.974 µM | strong agonistic effects | – | – | – |
| CCOC(=O)CCC(=O)c1cc2cc(OC)c(OCCCOc3cc4cc(C(=O)N(C)CCC(=O)OCC)sc4cc3OC)cc2s1 [Compound 3] | – | – | – | – | 0.00358 µM | 1.92 OD620nm | – | strong agonistic effects | strong agonistic effects | – | – |
| COc1cc2cc(C(=O)CCC(=O)O)sc2cc1OC [Control Compound 2, reference compound] | 16.8 µM | 1373.9 pg/mL | 1106.15 pg/mL | 24.6 µM | – | 1.49 OD620nm | 4.95 µM | – | – | 1.89 µM | 3.78 µM |

Source: patent publication US12269816B2, “Benzothiophene compound, preparation method therefor and use thereof” (SICHUAN KELUN-BIOTECH BIOPHARMACEUTICAL CO., LTD., priority 2019, dated 2025)
